Test results: US10953027B2, “Active agents and methods of their use for the treatment of metabolic disorders and nonalcoholic fatty liver disease” (Flagship Pioneering Innovations V, Inc., priority 2018, dated 2021)

Assays:
[1] = system: Mouse myocyte; test: Mouse myocyte lipolysis assay; type: cell-based; conditions: for activity at 3000 µM: 3 mM
Method: Cells were obtained from ATCC and cultured in Dulbecco's Modified Eagle's medium (DMEM) containing 20% fetal bovine serum and 1% penicillin/streptomycin at 37° C. in an incubator with 5% CO2. Once the cells became confluent, they were seeded into a tissue culture treated 96 well plate. The next day, the medium containing DMEM with 2% equine serum was used to start differentiation. Once cells were fully differentiated, they were treated with indicated compounds.

[2] = system: Mouse 3T3-L1 cells; test: Mouse adipocyte lipolysis assay; type: cell-based; conditions: for activity at 3000 µM: 3 mM
Method: Once the cells became confluent, they were seeded into a tissue culture treated 96 well plate. […] After 14 days of differentiation, cells were treated with compounds of interest. After 24 hours post-treatment, the cell viability was assessed using CellTiter-Glo Luminescent Cell Viability Assay from Promega, and lipolysis was determined using Lipolysis Assay Kit from ZenBio.

[3] = system: naïve CD4+ T cells; test: Human regulatory T cell differentiation assay; type: cell-based; conditions: 6 days
Method: Peripheral blood mononuclear cells (PBMCs) from whole blood donated by health volunteers were separated by Ficoll-Paque gradient centrifugation and naïve CD4^+ T cells were subsequently isolated using magnet beads (EasySep™ Human Naïve CD4^+ T Cell Isolation Kit, Cambridge, Mass.). For regulatory T cell (Treg) differentiation assay, naïve CD4^+ T cells were cultured (1-10×10^4 cells) in CTS OpTmizer medium for 6 days and stimulated with 5 ng/ml TGF-β, 100 U/ml IL-2, and ImmunoCult™ Human […] T Cell Activator; Stemcell #10990) with/without our Compounds. Cell viability was determined using a viability dye (eBioscience Fixable Viability Dye eFluor 780: ThermoFisher 65-0865-14) at 1:500 dilution. The cells were gated for Treg, defined as Live, CD11c^−, CD14^−, CD19^−, CD8^−, CD4^+, CD3^+, CD25^+, FOXP3^+. Percent (%) Tregs were calculated as percentage of CD4^+, CD25^+, FOXP3^+ cells over total CD4^+ T cells. Statistical analysis was performed with GraphPad Prism Software Using One-Way ANOVA.

[4] = system: C57BL/6 DIO mice; test: DIO animal model of NAFLD/NASH in young mice (Example 16); type: in vivo; parameters: OGTT: unit not given beside the values; conditions: for % Weight change: 12 weeks; for OGTT: Day 82, 2 g/kg glucose PO; for % Difference compared to ctrl: weight change vs HFD ctrl
Description: Species (number, sex, age/weight): C57BL/6 DIO mice (120+10 spares, male, ˜18 weeks of age) from Jackson Laboratories, Stock #380050. Note: 18 week old DIO mice sent sent with a minimum body weight of 39 grams. Spare animals may be used to replace study animals, as required, euthanized after completion of dose administration or transferred to Testing Facility Docket 07-12.
Cage Side Observations (Animal Health Checks): Cage side animal's health checks will be performed at least once daily to check for general health, mortality and moribundity. Clinical Observations: Clinical observations will be performed per exception. Body Weights: Body weights for all animals will be recorded prior to Day 1 and at least twice weekly thereafter, including prior to necropsy ([…]).
Dose Administration: Dosing for Groups 3-8 will be provided ad libitum in the diet. Dosing for Groups 9 (Saline) and 10 (Semaglutide at 123.4 μg/kg) in a 5 mL/kg volume, will begin on Day 1, and be performed 3 times weekly for 12 weeks by SC administration. Residual Test Article: All residual high fat diets will be frozen at nominally −20° C., and at the end of the study, several pellets of the diets for groups 2-9 (in 50-ml conical tubes) will be shipped to Sponsor, and the rest will be discarded. Residual control diets (group 1) will be stored ambient, and at the end of the study, several pellets in a 50 mL conical tube will be shipped to Sponsor and the rest is discarded. Residual test material for Group 10 will be stored at nominally −70° C., and at the end of the study, an aliquot of test material will be shipped to Sponsor, and the rest will be discarded.
(§1) Oral Glucose Tolerance Test (oGTT) On Day 82 (+/−2 days) an oGTT will be performed. Following an approximate 4 hour fast, 2 g/kg glucose (50% Dextrose diluted in sterile water for injection to a concentration of 0.4 g/mL) will be administered at 5 mL/kg via oral gavage (PO). Blood will be collected pre-glucose challenge (t=0) and at t=15, 30, 60, 90, and 120 minutes following the glucose challenge. Whole blood glucose levels will be evaluated at all time points using a handheld glucometer and will be reported in the Data Submission. This will be scheduled on a Tuesday or Thursday to avoid Group 9/10 dosing days.
as §1, with “Submission.” for “Submission. This will be scheduled on a Tuesday or Thursday to avoid Group 9/10 dosing days.”

[5] = Assay 1. Stability in Simulated Gastric Fluid (SGF); type: in vitro ADME; conditions: 1 μM, 37° C., SGF pH 1.6 with pepsin
Procedure, shortened: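 Simulated gastric fluid, prepared fresh as NaCl buffer at pH 1.6 with 0.1 mg/mL pepsin and FaSSIF powder, received test compound to 1 μM final and was held at 37 °C. LC/MS of acetonitrile-quenched samples, taken immediately and then periodically, gave degradation rates.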

[6] = Assay 2. Stability in Simulated Intestinal Fluid (SIF); type: in vitro ADME; conditions: 1 μM, 37° C., SIF pH 6.7 with pancreatin
Procedure, shortened: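 Degradation rate measured by LC/MS after acetonitrile quench of timed aliquots, starting at T0. Test compound 1 μM in simulated intestinal fluid (pH 6.7 phosphate buffer, FaSSIF powder, pancreatin), shaken at 37 °C.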

[7] = Mus musculus, read-out: Free glycerol % DMSO
[8] = Mus musculus, 3T3-L1, 24 hours, read-out: Lipolysis Free Fatty Acids % DMSO

## CCC(=O)O [Propionic acid]
[1]; [7]
  activity at 3000 µM: 50 to 70%
[2]; [8]
  activity at 3000 µM: ≤ 50%
[3]; 3 mM
  Cell viability % DMSO: = (90%≥ ≤110%: =)

## CCCC(=O)O [Butyric acid]
[1]; [7]
  activity at 3000 µM: < 50%
[2]; [8]
  activity at 3000 µM: 50 to 70%

## CC(O)CC(=O)[O-].[Na+] (stereo not drawn) [Sodium BHB]
[1]; 0.2 mM
  Free glycerol % DMSO: ++ (50> <70%: ++)
[1]; 2 mM
  Free glycerol % DMSO: ++ (50> <70%: ++)
[2]; 0.2 mM, 24 hours
  Lipolysis Free Fatty Acids % DMSO: ++ (50> ≤70%: ++)
  Lipolysis Glycerol % change: + (70%> ≤90%: +)
[2]; 0.2 mM, 24 hours post-treatment
  cell viability (CellTiter-Glo): 86 % of DMSO control
[2]; 2 mM, 24 hours
  Lipolysis Free Fatty Acids % DMSO: ++ (50> ≤70%: ++)
  Lipolysis Glycerol % change: ++ (50> ≤70%: ++)
[2]; 20 mM, 24 hours
  Lipolysis Free Fatty Acids % DMSO: + (70%> ≤90%: +)
  Lipolysis Glycerol % change: ++ (50> ≤70%: ++)
[3]; 2 mM
  Cell viability % DMSO: = (90%≥ ≤110%: =)
  Treg induction % DMSO: + (110%> ≤130%: +)
[3]; 20 mM
  Cell viability % DMSO: − (<90%: −)
  Treg induction % DMSO: = (90%≥ ≤110%: =)

## CC[C@H]1[C@@H](O)[C@@H]2[C@H](CC[C@]3(C)[C@@H]([C@H](C)CCC(=O)O)CC[C@@H]23)[C@@]2(C)CC[C@@H](O)C[C@@H]12 [Obeticholic acid, obeticholic acid]
[1]; Mus musculus, 100 μM, read-out: Free glycerol % DMSO
  activity at 100 µM: 90 to 100%
[2]; Mus musculus, 3T3-L1, 100 μM, 24 hours, read-out: Lipolysis Free Fatty Acids % DMSO
  activity at 100 µM: 90 to 100%
[3]; 100 uM
  Cell viability % DMSO: = (90%≥ ≤110%: =)
[3]; Homo sapiens, CD4+ T, 144 h, 100 uM, read-out: Treg induction % DMSO
  activity at 100 µM: 110 to 130%

## O=C[C@H](O)[C@@H](O)[C@@H](O)CO [L-arabinose]
[1]; Mus musculus, 0.5 mM, read-out: Free glycerol % DMSO
  activity at 500 µM: 70 to 90%
[1]; Mus musculus, 1 mM, read-out: Free glycerol % DMSO
  activity at 1000 µM: 70 to 90%
[2]; Mus musculus, 3T3-L1, 0.5 mM, 24 hours, read-out: Lipolysis Free Fatty Acids % DMSO
  activity at 500 µM: 50 to 70%
[2]; Mus musculus, 3T3-L1, 1 mM, 24 hours, read-out: Lipolysis Free Fatty Acids % DMSO
  activity at 1000 µM: 50 to 70%
[3]; 0.5 mM
  Cell viability % DMSO: = (90%≥ ≤110%: =)
[3]; 1 mM
  Cell viability % DMSO: = (90%≥ ≤110%: =)
[3]; Homo sapiens, CD4+ T, 144 h, 0.5 mM, read-out: Treg induction % DMSO
  activity at 500 µM: 90 to 110%
[3]; Homo sapiens, CD4+ T, 144 h, 1 mM, read-out: Treg induction % DMSO
  activity at 1000 µM: 90 to 110%

## CCCC(=O)O[C@H]1OC[C@H](OC(=O)CCC)[C@H](OC(=O)CCC)[C@H]1OC(=O)CCC [Compound 184, (2R,3R,4S,5S)-3,4,5-tris(butanoyloxy)oxan-2-yl Butanoate]
[4]; ad libitum in HFD
  % Weight change: 11%
  % Difference compared to ctrl: −12%
[4]; ad libitum in HFD, ctrl HFD
  OGTT: 27257
  % HbA1c: 5.96%

## CCCC(=O)OCC[C@@H](C)OC(=O)Oc1ccc(/C=C/c2cc(OC(=O)O[C@H](C)CCOC(=O)CCC)cc(OC(=O)O[C@H](C)CCOC(=O)CCC)c2)cc1 [Compound 78, (3R,3′R)-((((5-((E)-4-(((((R)-4-(butyryloxy)butan-2-yl)oxy)carbonyl)oxy)styryl)-1,3-phenylene)bis(oxy))bis(carbonyl))bis(oxy))bis(butane-3,1-diyl) dibutyrate]
[5]
  Assay 1 (SGF) (% Remaining @ 1 hours): C (C: >75% of the tested compound remaining)
[4]; ad libitum in HFD
  % Weight change: 21%
  % Difference compared to ctrl: −2%
[4]; ad libitum in HFD, ctrl HFD
  OGTT: 29944
  % HbA1c: 6.14%
[6]
  Assay 2 (SIF) (% @ Remaining 4 hours): A (A: <25% of the tested compound remaining)

## Semaglutide [reference compound]
[4]; 123.4 μg/kg SC 3 times weekly for 12 weeks, ctrl Saline
  % HbA1c: 7.90%
[4]; 123.4 μg/kg SC 3 times weekly, ctrl Saline
  OGTT: 18214

## CCCC(=O)Oc1cc(OC(=O)CCC)c2c(=O)c(OC(=O)CCC)c(-c3ccc(OC(=O)CCC)c(OC(=O)CCC)c3)oc2c1 [Compound 15, [2-butanoyloxy-4-[3,5,7-tri(butanoyloxy)-4-oxo-chromen-2-yl]phenyl] butanoate]
[5]
  Assay 1 (SGF) (% Remaining @ 1 hours): C (C: >75% of the tested compound remaining)
[4]; ad libitum in HFD
  % Weight change: 23%
  % Difference compared to ctrl: 0%
[4]; ad libitum in HFD, ctrl HFD
  OGTT: 32722
  % HbA1c: 6.50%
[6]
  Assay 2 (SIF) (% @ Remaining 4 hours): B (B: 25-75% of the tested compound remaining)
